Data as given in article PMC10961402, “Safety, tolerability, pharmacokinetics and pharmacokinetic-pharmacodynamic modeling of cetagliptin in patients with type 2 diabetes mellitus” (Frontiers in Endocrinology, 2024).
Like-named read-outs stand apart in the source and are kept apart here.

Key:
DPP-4 = molecular target: T1, DPP-4 (Homo sapiens, UniProt P27487); assay: Population PK/PD model (Sigmoid-Emax, DPP-4 inhibition); assay type: in vivo
T1 construct: from tissue; host or cells: human plasma (K2-EDTA blood from T2DM patients)
T1 sequence (P27487 39-766 limits assumed): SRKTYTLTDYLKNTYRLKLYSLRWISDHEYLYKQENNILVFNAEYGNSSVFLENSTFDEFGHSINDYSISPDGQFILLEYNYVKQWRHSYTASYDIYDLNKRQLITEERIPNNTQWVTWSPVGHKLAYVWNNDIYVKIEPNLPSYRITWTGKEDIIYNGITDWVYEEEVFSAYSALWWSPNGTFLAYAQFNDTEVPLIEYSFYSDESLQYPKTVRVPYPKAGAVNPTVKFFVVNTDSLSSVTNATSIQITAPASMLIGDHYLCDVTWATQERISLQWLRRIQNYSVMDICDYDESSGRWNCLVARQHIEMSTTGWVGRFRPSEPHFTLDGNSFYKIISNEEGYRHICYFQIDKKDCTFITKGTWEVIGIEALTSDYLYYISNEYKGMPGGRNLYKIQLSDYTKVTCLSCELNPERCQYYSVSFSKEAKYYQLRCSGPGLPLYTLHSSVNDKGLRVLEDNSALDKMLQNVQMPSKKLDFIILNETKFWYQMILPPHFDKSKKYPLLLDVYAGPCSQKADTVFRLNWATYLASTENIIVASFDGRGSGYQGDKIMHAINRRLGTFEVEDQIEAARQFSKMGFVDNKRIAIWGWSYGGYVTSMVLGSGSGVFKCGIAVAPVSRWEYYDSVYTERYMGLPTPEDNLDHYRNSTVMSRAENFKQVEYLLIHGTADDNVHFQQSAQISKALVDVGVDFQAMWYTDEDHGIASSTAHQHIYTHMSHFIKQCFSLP
Description: As a result of data with an absolute value of CWRES greater than 5 being excluded, only 554 blood concentrations of cetagliptin were included in development of the PopPK/PD model. A direct-effect model was used to build the PK/PD model; and the model formula was as follows:
DPP−4 inhibition (%)=Emax*C^γ/(EC50γ+C^γ)

[1] = system: glucose, insulin, C-peptide, and glucagon; assay: Oral glucose tolerance test (OGTT): glucose, insulin, C-peptide, glucagon; assay type: in vivo, human; parameters: change of AUEC0-3 h relative to baseline for insulin (OGTT) / change of AUEC0-3 h relative to baseline for C-peptide (OGTT) / change of AUEC0-3 h relative to baseline for glucagon (OGTT) / C-peptide AUEC0-t (OGTT) / glucagon AUEC0-t (OGTT) / insulin AUEC0-t (OGTT): unit not given here; conditions: patients with T2DM; for change of AUEC0-3 h relative to baseline for C-peptide (OGTT) / change of AUEC0-3 h relative to baseline for glucagon (OGTT) / change of AUEC0-3 h relative to baseline for insulin (OGTT) / change of AUEC0-3 h relative to baseline for plasma glucose (OGTT): day 15 vs day -1
Protocol: To assess the impact of investigational products on glucose, insulin, C-peptide, and glucagon, OGTT tests were conducted on day -1 and day 15 following a fasting period of more than 8 hours. Subjects received a 75 g oral glucose dose and blood samples (1.5 mL for glucose, 3.5 mL for insulin and C-peptide, 2 mL for glucagon) were collected at 0, 0.167, 0.5, 1, 1.5, 2, and 3 h after ingestion of glucose. The PD parameters (AUEC0-t) for glucose, insulin, C-peptide, and glucagon were calculated by using drug effect module of non-compartmental method with Phoenix WinNonlin.

[2] = parameters: method as in PMID 34965609; conditions: healthy subjects, cited from earlier work
[3] = parameters: method as in PMID 34655432; conditions: healthy subjects; single oral doses of 12.5 to 400 mg; cited from earlier work
serum DPP-4 activity = system: serum DPP-4 activity; parameters: method as in PMID 22686547; conditions: Zucker Diabetic Fatty rats; preclinical studies (data not published); cited from earlier work
[4] = final model estimate, patients with T2DM
[5] = 50 mg group, day -1 (baseline before dosing)
[6] = 100 mg group, day -1 (baseline before dosing)
[7] = day 15 after 50 mg once daily for 14 days
[8] = day 15 after 100 mg once daily for 14 days

tvEC50 (typical value of concentration for 50% of maximal effect) (DPP-4; bootstrap median): 5.120
tvEmax (typical value of maximum pharmacodynamic effects) (DPP-4; bootstrap median): 91.78
tvGam (typical value of Hill coefficient) (DPP-4; bootstrap median): 1.008
tvEC50 (typical value of concentration for 50% of maximal effect) (DPP-4; [4]): 5.120
tvEmax (typical value of maximum pharmacodynamic effects) (DPP-4; [4]): 91.78
tvGam (typical value of Hill coefficient) (DPP-4; [4]): 1.008
Compound: C[C@@H]1c2cnc(C(F)(F)F)n2CCN1C(=O)C[C@H](N)Cc1cc(F)c(F)cc1F.O=P(O)(O)O [Cetagliptin, cetagliptin]
C-peptide AUEC0-t (OGTT) [1, 5]: 4072.02 ± 1174.82
glucagon AUEC0-t (OGTT) [1, 5]: 469.51 ± 189.76
glucose AUEC0-t (OGTT) [1, 5]: 48.65 ± 5.34 mmol·h/L
insulin AUEC0-t (OGTT) [1, 5]: 431.53 ± 271.81
change of AUEC0-3 h relative to baseline for C-peptide (OGTT) ([1]; 50 mg once daily): 1851.30
change of AUEC0-3 h relative to baseline for glucagon (OGTT) ([1]; 50 mg once daily): -72.70
change of AUEC0-3 h relative to baseline for insulin (OGTT) ([1]; 50 mg once daily): 219.90
change of AUEC0-3 h relative to baseline for plasma glucose (OGTT) ([1]; 50 mg once daily): -4.97 mmol·h/L
C-peptide AUEC0-t (OGTT) [1, 6]: 6059.64 ± 1263.61
glucagon AUEC0-t (OGTT) [1, 6]: 503.79 ± 161.61
glucose AUEC0-t (OGTT) [1, 6]: 40.59 ± 2.87 mmol·h/L
insulin AUEC0-t (OGTT) [1, 6]: 716.44 ± 250.84
change of AUEC0-3 h relative to baseline for C-peptide (OGTT) ([1]; 100 mg once daily): 1761.48
change of AUEC0-3 h relative to baseline for glucagon (OGTT) ([1]; 100 mg once daily): -7.21
change of AUEC0-3 h relative to baseline for insulin (OGTT) ([1]; 100 mg once daily): 292.18
change of AUEC0-3 h relative to baseline for plasma glucose (OGTT) ([1]; 100 mg once daily): -2.76 mmol·h/L
C-peptide AUEC0-t (OGTT) [1, 7]: 5923.31 ± 2012.97
glucagon AUEC0-t (OGTT) [1, 7]: 396.81 ± 51.89
glucose AUEC0-t (OGTT) [1, 7]: 43.68 ± 8.04 mmol·h/L
insulin AUEC0-t (OGTT) [1, 7]: 651.43 ± 455.05
C-peptide AUEC0-t (OGTT) [1, 8]: 7821.13 ± 2023.09
glucagon AUEC0-t (OGTT) [1, 8]: 496.58 ± 158.93
glucose AUEC0-t (OGTT) [1, 8]: 37.83 ± 5.09 mmol·h/L
insulin AUEC0-t (OGTT) [1, 8]: 1008.62 ± 367.20
AUC0-τ (steady state) ([2]; 50 mg): 1440 ng·h/mL
Cmax (steady state) ([2]; 50 mg): 125 ng/mL
RAUC ([2]; 50 mg): 1.72
Tmax (steady state) ([2]; 50 mg): 1.5 h
t1/2 (steady state) ([2]; 50 mg): 38.8 h
AUC0-τ (steady state) ([2]; 100 mg): 3120 ng·h/mL
Cmax (steady state) ([2]; 100 mg): 294 ng/mL
RAUC ([2]; 100 mg): 1.38
Tmax (steady state) ([2]; 100 mg): 1.0 h
t1/2 (steady state) ([2]; 100 mg): 36.6 h
dose-limiting toxicity [3]: no dose-limiting toxicity observed
inhibition of serum DPP-4 activity (serum DPP-4 activity): ≥ 80%
